Experimental data from paper PMC4992173, “Divergent synthesis and identification of the cellular targets of deoxyelephantopins” (Nature Communications, 2016).

Key:
PPARγ = target: T1, PPARγ (Homo sapiens, UniProt P37231); assay: Gel-based screening for PPARγ binders using probe 24c-Cy3; type: binding; set-up: purchased Cayman Chemical; conditions: 20 μM, 1 h, then 10 μM 24c-Cy3; 19a named first, 28 second
T1 sequence (P37231 1-505): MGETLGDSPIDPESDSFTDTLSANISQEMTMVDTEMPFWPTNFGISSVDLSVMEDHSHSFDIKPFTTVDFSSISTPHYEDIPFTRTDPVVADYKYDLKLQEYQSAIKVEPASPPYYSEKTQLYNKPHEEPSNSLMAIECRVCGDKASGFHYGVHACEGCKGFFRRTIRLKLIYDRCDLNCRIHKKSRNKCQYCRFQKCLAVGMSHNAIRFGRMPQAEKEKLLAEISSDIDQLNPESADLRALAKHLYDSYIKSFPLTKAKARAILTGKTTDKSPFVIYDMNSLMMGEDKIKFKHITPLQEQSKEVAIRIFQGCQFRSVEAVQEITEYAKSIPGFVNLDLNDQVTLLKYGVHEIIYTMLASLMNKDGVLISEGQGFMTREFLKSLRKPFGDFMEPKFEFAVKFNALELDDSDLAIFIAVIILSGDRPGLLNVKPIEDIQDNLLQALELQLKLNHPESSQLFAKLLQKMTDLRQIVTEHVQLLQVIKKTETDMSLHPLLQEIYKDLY
Description: (c) Gel-based competitive screening of DEP and analogues as PPARγ antagonists against recombinant human enzyme (top). hPPARγ was treated with each compound (20 μM) for 1 h followed by treatment with 24c-Cy3 (10 μM) as probe. Quantification of fluorescence intensity in the competitive screening for PPARγ antagonists (bottom; values±s.d. are shown; n=3).
Briefly, recombinant human PPARγ was pretreated with compounds at 20 μM concentration followed by the probe 24c-Cy3.
Samples were then treated with 10 μM 24c-Cy3 (0.5 μl of 25 × stock in DMSO) for 1 h at room temperature in the dark. SDS–PAGE reducing loading buffer (4 ×) was added and proteins were separated using a 10% SDS–PAGE gel. Gels were visualized at 625 nm using a Hitachi FMBIO II Multi-View fluorescence scanner, then stained using silver staining. Images were quantified with ImageJ.

[1] = tested on: several human cancer cell lines; conditions: cited from earlier work
Nucleoporin p54 (NUP54) = target: T2, Nucleoporin p54 (NUP54) (Homo sapiens, UniProt Q7Z3B4); assay: In situ competitive profiling in live MCF7 cells (LFQ): NUP54; type: cell-based; conditions: protein NUP54, 4 h, then 10 µM 24c, n=4
T2 construct: endogenous in cells; host or cells: MCF7
T2 sequence (Q7Z3B4 whole entry): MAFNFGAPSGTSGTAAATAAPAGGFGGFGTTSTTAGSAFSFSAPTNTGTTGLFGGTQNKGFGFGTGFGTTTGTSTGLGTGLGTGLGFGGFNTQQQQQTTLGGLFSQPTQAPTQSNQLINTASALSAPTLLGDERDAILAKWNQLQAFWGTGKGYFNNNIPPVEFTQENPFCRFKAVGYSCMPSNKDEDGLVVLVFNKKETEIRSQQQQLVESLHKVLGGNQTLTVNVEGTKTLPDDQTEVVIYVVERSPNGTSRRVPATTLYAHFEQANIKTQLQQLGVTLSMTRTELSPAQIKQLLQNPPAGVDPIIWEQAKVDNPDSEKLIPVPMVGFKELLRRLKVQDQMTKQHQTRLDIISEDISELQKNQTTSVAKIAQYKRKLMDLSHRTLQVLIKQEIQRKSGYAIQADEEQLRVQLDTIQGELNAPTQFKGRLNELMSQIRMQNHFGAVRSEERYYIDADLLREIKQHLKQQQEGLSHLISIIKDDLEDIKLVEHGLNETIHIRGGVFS
Source text: (§1) In our efforts to determine the direct molecular targets of deoxyelephantopin we first performed a gel-based competitive in situ proteomic profiling assay[41] […] While the greater conformational flexibility of probe 24c could potentially lead to more promiscuous target engagement relatively to deoxyelephantopin, it was favoured based on the fact that an alkyne moiety appended to the rigid scaffold of deoxyelephantopin may hinder some of its interactions. MCF7 cells were pretreated with various concentrations of deoxyelephantopin for 4 h, harvested, lysed and the lysates were treated with the fluorogenic probe 24c-Cy3 (10 μM; Supplementary Fig. 10). […] Furthermore, cells were pretreated with 20 μM concentration of deoxyelephantopin or 24c and the proteomic profiles were compared (Fig. 6b, Supplementary Fig. 11). Multiple bands were detected that were equally competed by both DEP and 24c, thus again confirming that 24c can be used as an acceptable clickable analogue of deoxyelephantopin in pulldown assays. Having established the optimal labelling conditions by SDS–PAGE, we next carried out a mass spectrometry-based competitive profiling assay[42] coupled with the method of stable isotope labelling of amino acids in culture (SILAC)[43]. […]
(§2) Figure 6 Proteome-wide identification of deoxyelephantopin targets. […] Quantification was performed using label-free quantification (LFQ) method (n=4). […]

[2] = target: T3, Src substrate cortactin (CTTN) (Homo sapiens, UniProt Q14247); assay: In situ competitive profiling in live MCF7 cells (LFQ): CTTN; type: cell-based; conditions: protein CTTN, 4 h, then 10 µM 24c, n=4
T3 construct: endogenous in cells; host or cells: MCF7
T3 sequence (Q14247 whole entry): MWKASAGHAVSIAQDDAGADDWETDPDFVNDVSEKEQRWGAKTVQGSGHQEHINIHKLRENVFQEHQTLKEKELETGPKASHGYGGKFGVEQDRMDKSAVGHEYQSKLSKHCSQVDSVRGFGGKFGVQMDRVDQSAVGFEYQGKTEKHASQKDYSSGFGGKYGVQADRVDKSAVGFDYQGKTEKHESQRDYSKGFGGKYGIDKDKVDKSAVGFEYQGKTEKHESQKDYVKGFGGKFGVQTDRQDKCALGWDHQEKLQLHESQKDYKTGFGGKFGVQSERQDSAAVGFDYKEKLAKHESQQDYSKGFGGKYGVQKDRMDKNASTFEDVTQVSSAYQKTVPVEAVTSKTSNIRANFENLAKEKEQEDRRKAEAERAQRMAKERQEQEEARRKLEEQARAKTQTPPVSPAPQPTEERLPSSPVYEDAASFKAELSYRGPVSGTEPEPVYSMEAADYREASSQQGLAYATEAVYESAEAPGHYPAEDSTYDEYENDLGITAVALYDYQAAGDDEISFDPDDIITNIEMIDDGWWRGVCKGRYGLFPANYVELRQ
Source text: as §1, §2

Heme oxygenase 2 (HMOX2) = target: T4, Heme oxygenase 2 (HMOX2) (Homo sapiens, UniProt P30519); assay: In situ competitive profiling in live MCF7 cells (LFQ): HMOX2; type: cell-based; conditions: protein HMOX2, 4 h, then 10 µM 24c, n=4
T4 construct: endogenous in cells; host or cells: MCF7
T4 sequence (P30519 whole entry): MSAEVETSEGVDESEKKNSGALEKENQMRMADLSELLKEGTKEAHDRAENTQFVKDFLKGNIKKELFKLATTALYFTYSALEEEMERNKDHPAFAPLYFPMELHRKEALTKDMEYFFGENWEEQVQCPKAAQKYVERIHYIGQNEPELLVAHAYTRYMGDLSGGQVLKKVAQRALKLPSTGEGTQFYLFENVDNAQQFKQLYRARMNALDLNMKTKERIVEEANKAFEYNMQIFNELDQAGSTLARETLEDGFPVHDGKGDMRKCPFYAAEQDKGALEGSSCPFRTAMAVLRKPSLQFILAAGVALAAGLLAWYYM
Source text: as §1, §2

[3] = target: T5, Protein transport protein Sec24C (SEC24C) (Homo sapiens, UniProt P53992); assay: In situ competitive profiling in live MCF7 cells (LFQ): SEC24C; type: cell-based; conditions: 4 h, then 10 µM 24c, n=4
T5 construct: endogenous in cells; host or cells: MCF7
T5 sequence (P53992 whole entry): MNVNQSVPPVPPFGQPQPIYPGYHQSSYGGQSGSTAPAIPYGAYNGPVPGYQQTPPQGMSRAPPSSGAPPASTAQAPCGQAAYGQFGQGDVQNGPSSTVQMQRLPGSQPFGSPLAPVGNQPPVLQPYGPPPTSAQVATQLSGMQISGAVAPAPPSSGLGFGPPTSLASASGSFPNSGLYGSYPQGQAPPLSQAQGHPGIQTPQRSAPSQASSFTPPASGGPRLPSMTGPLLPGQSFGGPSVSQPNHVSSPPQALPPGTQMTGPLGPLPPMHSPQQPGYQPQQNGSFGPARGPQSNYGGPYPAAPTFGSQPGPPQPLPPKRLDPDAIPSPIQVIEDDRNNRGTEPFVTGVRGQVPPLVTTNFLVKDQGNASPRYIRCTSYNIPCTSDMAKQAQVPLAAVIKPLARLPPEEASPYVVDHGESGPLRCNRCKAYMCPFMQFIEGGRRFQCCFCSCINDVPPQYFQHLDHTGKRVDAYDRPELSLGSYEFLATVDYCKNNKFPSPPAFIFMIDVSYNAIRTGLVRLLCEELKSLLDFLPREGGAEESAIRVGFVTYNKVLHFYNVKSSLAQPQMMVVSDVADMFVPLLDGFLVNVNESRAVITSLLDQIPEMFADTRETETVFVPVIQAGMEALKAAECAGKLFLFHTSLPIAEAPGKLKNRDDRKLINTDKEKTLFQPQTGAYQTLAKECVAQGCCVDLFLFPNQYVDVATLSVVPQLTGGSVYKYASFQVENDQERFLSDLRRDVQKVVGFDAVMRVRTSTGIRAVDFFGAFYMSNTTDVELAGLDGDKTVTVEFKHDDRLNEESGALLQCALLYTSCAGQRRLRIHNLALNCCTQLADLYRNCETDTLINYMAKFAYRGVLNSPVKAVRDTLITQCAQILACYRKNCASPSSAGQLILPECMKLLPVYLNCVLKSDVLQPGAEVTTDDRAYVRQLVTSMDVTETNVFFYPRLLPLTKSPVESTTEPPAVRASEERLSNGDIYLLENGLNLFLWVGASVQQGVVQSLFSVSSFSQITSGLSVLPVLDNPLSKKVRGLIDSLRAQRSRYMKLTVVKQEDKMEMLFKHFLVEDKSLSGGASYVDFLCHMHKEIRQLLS
Source text: as §1, §2

| rank as covalent binder to PPARγ (competition of 24c-Cy3 labelling) (PPARγ) | SMILES | cytotoxic doses [1] [µg/mL] | LFQ ratio 20 µM Deoxyelephantopin/DMSO with 24c (Nucleoporin p54 (NUP54)) | LFQ ratio 20 µM Deoxyelephantopin/DMSO with 24c [2] | LFQ ratio 20 µM Deoxyelephantopin/DMSO with 24c (Heme oxygenase 2 (HMOX2)) | LFQ ratio 20 µM Deoxyelephantopin/DMSO with 24c [3] |
| --- | --- | --- | --- | --- | --- | --- |
| most effective covalent binder | C=C(C)C(=O)O[C@H]1CC2=C[C@H](C/C=C\[C@H]3OC(=O)C(=C)[C@H]13)OC2=O [19a] |  |  |  |  |  |
|  | C=C(C)C(=O)O[C@H]1CC2=C[C@@H](C/C(C)=C/[C@H]3OC(=O)C(=C)[C@H]13)OC2=O [deoxyelephantopin] | 0.5 to 2 | 0.24 | 0.22 | 0.14 | 0.18 |
